Reference: patent US9113650B2, “Pectic enzyme treated pectin, method of producing the same and application thereof” (NATIONAL PINGTUNG UNIVERSITY OF SCIENCE AND TECHNOLOGY, priority 2011, dated 2015)
Marks after values point to notes of the source that are not given here.

Assays:
Assay type in all cases: biochemical
[1] = Reducing power (Prussian blue, OD700 nm)
Protocol: The reducing power of PET-pectin was determined by using the yield of Prussian blue [ferric ferrocyanide; […] In brief, three-valent […] ion (Fe^3+) of red blood salt (potassium […]; […] And then, the light absorbance of Prussian blue at 700 nm was detected to evaluate the reducing power, in which the higher light absorbance was referred to the stronger reducing power. This EXAMPLE could use the conventional method. The PET-pectin was prepared to various concentrations, each 20 μL aliquot of the sample solutions (i.e. pectin solution, PET-pectin solution, BHT solution or Vit. E solution listed in TABLE 2) was added with 50 μL of 0.2 M phosphate buffer (pH 6.6) containing 1% red blood salt [K3Fe(CN)6], incubated in water bath at 50° C. for 20 minutes and added with 50 μL of 10% trichloroacetic acid (TCA) solution. […] The absorbance at 700 nm is measured by the spectrophotometer and listed in the fifth column of TABLE 4, in which the higher light absorbance is referred to the stronger reducing power. Each data of TABLE 4 is referred to the mean of samples in at least or more than triplicate.

[2] = DPPH radical scavenging activity
Protocol: 4 mL of sample solutions (i.e. pectin solution, PET-pectin solution, BHT solution or Vit. […] And then, the light absorbance of those mixtures at 517 nm was detected by the spectrophotometer, and their DPPH radical scavenging activities (%) were calculated according to the following formula (I), in which the lower light absorbance was referred to the stronger DPPH radical scavenging activity. Each data of TABLE 4 is referred to the mean of samples in triplicate and the result is listed in the third column of TABLE 4. [formula]

[3] = Trolox equivalent antioxidant capacity (TEAC), ABTS
Protocol: The ABTS could serve as the free radical source. After the mixture reacted in the dark for 12 to 16 hours and generated stably blue-green ABTS, followed by adding 0.25 mL of various concentrations of sample solutions (i.e. pectin solution, PET-pectin solution, BHT solution or Vit. E solution listed in TABLE 2) and reacting for 10 minutes. And then, the light absorbance of those mixtures at 734 nm was detected by the spectrophotometer, and the result was listed in TABLE 4. Each data of TABLE 4 was referred to the mean of samples in at least or more than triplicate. […] E analogue; Sigma, St. Louis, Mo., U.S.A.) standard curve established by using different concentrations of trolox as a reference. The results of TEAC are shown in FIG. 2 and the fourth column of TABLE 4.

| SMILES | Reducing Power (OD700 nm) ([1]; concentration 0.01 mg/mL) | Reducing Power (OD700 nm) ([1]; concentration 0.10 mg/mL) | DPPH radical scavenging activity(%) ([2]; concentration 0.01 mg/mL) | DPPH radical scavenging activity(%) ([2]; concentration 0.10 mg/mL) | TEAC (mM Trolox) ([3]; concentration 0.01 mg/mL) | TEAC (mM Trolox) ([3]; concentration 0.10 mg/mL) |
| --- | --- | --- | --- | --- | --- | --- |
| Cc1cc(C(C)(C)C)c(O)c(C(C)(C)C)c1 [Butylated hydroxytoluene (BHT), Butylated hydroxytoluene] | 0.5 ± 0.0^d OD700 nm | 1.7 ± 0.1^b OD700 nm | 5.2 ± 0.4^e % | 49.2 ± 2.9^c % | 0.4 ± 0.0^d mM Trolox | 1.3 ± 0.2^c mM Trolox |
| Cc1c(C)c2c(c(C)c1O)CC[C@@](C)(CCC[C@H](C)CCC[C@H](C)CCCC(C)C)O2 [α-tocopherol (Vit. E), α-tocopherol] | 0.6 ± 0.0^d OD700 nm | 2.5 ± 0.0^a OD700 nm | 46.1 ± 0.4^d % | 96.8 ± 0.5^a % | 0.5 ± 0.0^d mM Trolox | 3.5 ± 0.1^b mM Trolox |
